Test results taken from paper PMC11391452, “Fruits from Rosa roxburghii: A Valuable Bioresource of Potent Radical Scavengers and Novel Ursane-Type Triterpenoids” (ACS Omega, 2024).
pEC50: −log10 of the molar value. “Also recorded” adds a separate entry of the source.

Assays:
[1] = target: T1, COX-2 (Ovis aries, UniProt P79208); experiment: COX (ovine) colorimetric inhibitor screening assay, COX-2; type: biochemical; conditions: for COX-2 inhibition, in words: in comparison to acetaminophen, Figure 3 A
T1 construct: purchased Cayman 760110
T1 sequence (P79208 17-603): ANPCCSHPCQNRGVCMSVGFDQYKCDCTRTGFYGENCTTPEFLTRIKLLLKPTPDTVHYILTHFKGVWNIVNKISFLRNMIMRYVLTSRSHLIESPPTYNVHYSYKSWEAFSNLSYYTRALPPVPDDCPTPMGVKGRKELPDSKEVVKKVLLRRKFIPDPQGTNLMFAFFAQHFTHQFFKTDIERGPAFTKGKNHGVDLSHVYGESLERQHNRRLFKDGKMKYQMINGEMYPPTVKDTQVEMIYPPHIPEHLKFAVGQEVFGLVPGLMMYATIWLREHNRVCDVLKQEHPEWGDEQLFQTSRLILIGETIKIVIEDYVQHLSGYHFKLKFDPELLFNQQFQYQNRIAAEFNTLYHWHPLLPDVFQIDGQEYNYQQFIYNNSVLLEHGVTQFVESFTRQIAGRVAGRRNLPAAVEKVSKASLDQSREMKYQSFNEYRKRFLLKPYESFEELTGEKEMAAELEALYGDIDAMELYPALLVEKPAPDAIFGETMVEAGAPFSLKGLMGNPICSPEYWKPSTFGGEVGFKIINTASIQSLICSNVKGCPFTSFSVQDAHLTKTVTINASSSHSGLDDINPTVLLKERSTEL
Protocol: (§1) Each compound was assayed in triplicate, and GraphPad Prism 8 software was used to calculate EC50 values. All statistical analyses were performed by Microsoft Excel.

[2] = DPPH radical scavenging capacity assay; conditions: for free radical scavenging effect in comparison to ascorbic acid, in words: DPPH assay; for pEC50 / DPPH EC50: pure compounds, 30 min, 517 nm, ascorbic acid positive control
Protocol: The DPPH radical scavenging capacity assay was performed according to a previously described method with slight modifications.[34] Briefly, the tested compounds or extracts were dissolved in a small volume of DMSO to generate a 10 mM or 100 mg mL^–1 (for the extracts) stock solution and diluted to generate the final testing solution with methanol. The 0.2 mM fresh DPPH methanol solution was prepared daily. The 90 μL of methanolic solution of DPPH was added to 60 μL of tested compound solution with different concentrations (or 60 μL of methanol as blank) in 96-well plates and allowed to react for 30 min at ambient temperature in the dark. The absorbance (OD) was measured at 517 nm on an Infinite M200 Pro (Tecan, Austria) microplate reader. The level of the DPPH• scavenging activity was calculated as [drawing 1] The EC50 values were calculated by using GraphPad Prism 8 software 4.6.

[3] = system: HepG2 cells; experiment: Hepatoprotective assay (APAP-exposed cells, cell viability); type: cell-based; conditions: tested concentration of 100 μM (method 50 μM), 20 mM APAP, Figure 3 B1
Protocol: HepG2 cells were seeded into 96-well tissue culture dishes at 5 × 10^3 cells/well and cultured overnight in DMEM medium supplemented with 10% FBS and 1% penicillin/streptomycin antibiotics at 37 °C in a humidified 5% CO2 incubator. The cells were then incubated with test compounds at 50 μM or extracts at 200 mg mL^–1 for 4 h before acetaminophen (APAP) exposure. After this pretreatment, the experimental group was treated with 20 mM APAP together with the compounds; the APAP-only group was treated with 20 mM neomycin and an equivalent volume of DMSO; and the control group was treated with an equivalent volume of DMSO without APAP or test compounds. After another 24 h of culture, the cell viability was then measured using the CellTiter 96 Aqueous One Solution Cell Proliferation Assay kit (Promega, USA).[12]

[4] = target: T2, COX-1 (Ovis aries, UniProt P05979); experiment: COX (ovine) colorimetric inhibitor screening assay, COX-1; type: biochemical; conditions: for COX-1 inhibition, in words: in comparison to acetaminophen, Figure 3 A
T2 construct: purchased Cayman 760110
T2 sequence (P05979 25-600): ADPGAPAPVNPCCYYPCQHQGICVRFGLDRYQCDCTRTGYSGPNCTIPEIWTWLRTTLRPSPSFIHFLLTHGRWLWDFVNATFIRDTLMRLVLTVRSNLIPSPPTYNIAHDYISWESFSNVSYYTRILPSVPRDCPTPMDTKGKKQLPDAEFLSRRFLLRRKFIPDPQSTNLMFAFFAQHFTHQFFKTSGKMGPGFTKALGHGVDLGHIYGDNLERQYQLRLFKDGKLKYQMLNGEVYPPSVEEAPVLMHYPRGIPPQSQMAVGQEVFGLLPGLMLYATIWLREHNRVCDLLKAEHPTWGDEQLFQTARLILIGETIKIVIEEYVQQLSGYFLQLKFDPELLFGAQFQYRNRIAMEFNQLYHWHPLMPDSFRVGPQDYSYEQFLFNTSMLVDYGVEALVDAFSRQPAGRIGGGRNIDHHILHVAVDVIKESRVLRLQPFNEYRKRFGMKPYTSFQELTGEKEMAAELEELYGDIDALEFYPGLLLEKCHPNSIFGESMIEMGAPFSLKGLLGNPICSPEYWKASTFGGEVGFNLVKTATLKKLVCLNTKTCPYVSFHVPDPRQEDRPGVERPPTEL
Protocol: as §1

[5] = system: HaCaT cells; experiment: Anti-aging bioassay (UV-B irradiation model and viability assay, MTS); type: cell-based, Human; conditions: samples 25 μM, 24 h
Protocol: Human HaCaT cells were cultured routinely in DMEM (high glucose) supplemented with 10% fetal bovine serum and 1% penicillin–streptomycin solution in a humidified incubator at 37 °C and 5% CO2.[19] All cells were cultured in culture dishes, and the medium was changed every day. The cells were cultured when the cell density reached 80%. Briefly, the HaCaT cells were cultured for 24 h after plating at a density of 4 × 10^4 cells/100 μL in 96-well plates. Subsequently, cells were irradiated according to the grouping using a 20 W UV–B lamp (SiTing, Shanghai, CN) at a distance of 10 cm for 5 s. The irradiation dose was calculated to be approximately 0.80 J cm^–2. Cells were divided into the following groups: control, UV–B alone, and UV–B + samples (25 μM). After UV–B irradiation, HaCaT cells continued to culture for 24 h with the medium containing compounds to be measured. The effects of those compounds on cell protection were determined by the MTS assay (BestBio, Shanghai, CN). After incubation, cells in each well were treated with 20 μL MTS solution for 1 h. The absorbance at 490 nm was measured directly with a microplate reader (FlexStation3, Molecular Devices, CA, US). Cell viability was expressed as the ratio percentage of MTS after deducting background value, assuming that the absorbance of control cells with deducting background absorbance was 100%.

[6] = pure compounds, acetaminophen positive control

Row | SMILES | COX-2 inhibition, in words [1] | pEC50 [1, 6] | free radical scavenging effect in comparison to ascorbic acid, in words [2] | pEC50 [2] | hepatoprotective effect (cell viability of HepG2 cells), in words [3] | COX-1 inhibition, in words [4] | pEC50 [4, 6] | anti-aging effect (cell viability after UV-B irradiation), in words ([5]; Figure 3 B2) | anti-aging effect (cell viability after UV-B irradiation), in words ([5]; Figure 3 B2, listed as 2-oxo-pomolic acid) | DPPH EC50 [2] | anti-aging effect (cell viability after UV-B irradiation), in words ([5]; Figure 3 B2, listed as rosaroxine C) | COX-2 EC50 [1, 6] | COX-1 EC50 [4, 6]
1 | O=c1c(O)c(-c2ccc(O)c(O)c2)oc2cc(O)cc(O)c12 [Compound 16, quercetin] | high inhibition rates | 4.73 | powerful free radical scavenging effects | 4.88 | no protective effects | high inhibition rates | 4.48 |  |  |  |  |  | 
2 | O=C(O)c1cc(O)c(O)c(O)c1 [Compound 21, gallic acid] | high inhibition rates | 4.58 | powerful free radical scavenging effects | 5.00 |  | high inhibition rates | 4.40 |  |  |  |  |  | 
3 | CC(=O)Nc1ccc(O)cc1 [Acetaminphen, acetaminophen, reference compound] |  | 4.35 |  |  |  |  | < 4.00 |  |  |  |  |  | 
4 | Oc1cc(O)c2c(c1)OC(c1ccc(O)c(O)c1)C(O)C2 (centres unmarked) [Compound 15, catechin] |  | 4.27 | powerful free radical scavenging effects | 4.87 | no protective effects | high inhibition rates | 4.54 |  |  |  |  |  | 
5 | O=C1O[C@H]([C@@H](O)CO)C(O)=C1O [Ascorbic acid, ascorbic acid, reference compound] |  |  |  | 4.50 |  |  |  |  |  |  |  |  | 
6 | C[C@@H]1CC[C@]2(C(=O)O)CC[C@]3(C)C(=CC[C@@H]4[C@@]5(C)CC(=O)[C@H](O)C(C)(C)[C@@H]5CC[C@]43C)[C@@H]2[C@]1(C)O [Compound 5, 2-oxo-pomolic acid] | significant activities; also recorded: high inhibition rates | 4.78 |  |  | no protective effects | significant activities; also recorded: high inhibition rates | 4.55 | most active compounds | performed well | no activity |  |  | 
7 | CC1(C)C(O)C(=O)CC2(C)C1CCC1(C)C2CC=C2C3C(C(=O)O)(CCC(C(=O)O)C3(C)O)CCC21C (centres unmarked) [Compound 3, rosaroxine C] | significant activities; also recorded: high inhibition rates | 4.43 |  |  | no protective effects | significant activities; also recorded: high inhibition rates | 4.39 | most active compounds |  | no activity | performed well |  | 
8 | O=C(O)c1ccc(O)c(O)c1 [Compound 22, protocatechuic acid] |  |  | powerful free radical scavenging effects | 4.82 | no protective effects |  |  | most active compounds |  |  |  | no activity | no activity
